Assay results reported in publication PMC11240924, “Isolation, Identification, and Biological Activities of a New Chlorin e6 Derivative” (International Journal of Molecular Sciences, 2024).

Experiment: Singlet oxygen photogeneration (DPBF quenching)
Details: 1 µM, DMSO, DPBF 50 μM, 660 nm laser 0.5 J/cm^2
Experimental: Singlet oxygen photoregeneration was carried out using 1, 3-diphenylisobenzofuran (DPBF) in DMSO. DPBF is a selective ^1O2 acceptor that reacts with ^1O2. The sample solutions of DPBF (50 μM) which contained DPBF only (50 μM, as a control), MB (1, 5, and 10 μM), chlorin e6 (1, 5, and 10 μM), and rhodin g7 7^1-ethyl ester (1, 5, and 10 μM) were prepared under dark conditions. All of the samples were placed in a 96-well plate, which was covered with aluminum foil. The samples were then irradiated (660 nm, 50 mW, 0.5 J/cm^2) for 1 min and 40 s, and after irradiation, the visible spectra of the sample solutions were measured spectrophotometrically. The normalized absorbance of DPBF at 418 nm was measured in these samples. The ^1O2 photo-generation activities of MB, chlorin e6, and rhodin g7 7^1-ethyl ester can be compared with the different absorbance decay of each sample relative to the DPBF control sample.

Structure (SMILES): CN(C)c1ccc2nc3ccc(=[N+](C)C)cc-3sc2c1 [MB, Methylene blue, reference compound]
- ^1O2 generation (DPBF absorbance at 418 nm): 22.22%
